Laboratory results published in patent US9040523B2, “Antifungal 5,6-dihydro-4H-pyrrolo[1,2-α][1,4]-benzodiazepines and 6H-pyrrolo[1,2-α][1,4]benzodiazepines substituted with benzene derivatives” (JANSSEN PHARMACEUTICA NV, priority 2010, dated 2015).

Legend:
CYP3A4 = CYP3A4 (Homo sapiens, UniProt P08684); assay: Cytochrome P450 inhibition, Protocol A, cDNA expressed proteins, fluorogenic substrates; format: in vitro ADME; conditions: % inhibition at 10 μM, cDNA expressed protein; for hCYP3A4_BFC_Pct_Inh: substrate BFC; for hCYP3A4_BQ_Pct_Inh: substrate BQ; for hCYP3A4_DBF_Pct_Inh: substrate DBF
Procedure: (§1) All fluorogenic based assays were performed in Black Costar 96-well plates according to Crespi et al 1997 with minor modifications (Crespi C L, Miller V P & Penman B W (1997). Microtiter plate assays for inhibition of human, drug-metabolizing cytochromes P450. Anal. Biochem. Vol 248, 1898-1900). Assay conditions are outlined in Table 5a. For cytochrome P450 3A4, three different fluorogenic substrates were used. Each reaction mixture consisted of the appropriate concentration of enzyme, NADPH-generating system (“NADPH” means β-nicotinamide adenine dinucleotide phosphate, reduced), substrate in sodium/potassium buffer (pH 7.4). For each cytochrome P450 batch Michealis-Menten kinetics were determined using 11 concentrations.
(§2) Thereafter, further dilutions were made in acetonitrile. […] The compounds were serially diluted to give final concentrations ranging from 1 nM to 10 μM. The reaction mixtures, whereby 1 μL of buffer was replaced by compound solution, were pre-warmed for 5 min at 37° C. and the reaction was initiated by the addition of β-nicotinamide adenine dinucleotide phosphate (NADP+). Reactions were terminated by addition of stopping reagent and the fluorescence was measured using a Fluoroscan (Labsystems, Brussel, Belgium).
(§3) In Table 5a, the following abbreviations were used: 3-cyano-7-ethocycoumarin (CEC), 7-methoxy-4-trifluoromethylcoumarin (MFC), 3-[2-(N,N-diethyl-N-methylamino)ethyl]-7-methoxy-4-methylcoumarin (AMMC), 7-benzyloxy-trifluoromethyl coumarin (BFC), 7-benzyloxyquinoline (BQ) and dibenzyl fluorescein (DBF).

CYP1A2 = biological target: T1, CYP1A2 (Homo sapiens, UniProt P05177); assay: Cytochrome P450 inhibition, Protocol A, cDNA expressed proteins, fluorogenic substrate; format: in vitro ADME; conditions: % inhibition at 10 μM; substrate CEC; cDNA expressed protein
T1 sequence (P05177 1-516): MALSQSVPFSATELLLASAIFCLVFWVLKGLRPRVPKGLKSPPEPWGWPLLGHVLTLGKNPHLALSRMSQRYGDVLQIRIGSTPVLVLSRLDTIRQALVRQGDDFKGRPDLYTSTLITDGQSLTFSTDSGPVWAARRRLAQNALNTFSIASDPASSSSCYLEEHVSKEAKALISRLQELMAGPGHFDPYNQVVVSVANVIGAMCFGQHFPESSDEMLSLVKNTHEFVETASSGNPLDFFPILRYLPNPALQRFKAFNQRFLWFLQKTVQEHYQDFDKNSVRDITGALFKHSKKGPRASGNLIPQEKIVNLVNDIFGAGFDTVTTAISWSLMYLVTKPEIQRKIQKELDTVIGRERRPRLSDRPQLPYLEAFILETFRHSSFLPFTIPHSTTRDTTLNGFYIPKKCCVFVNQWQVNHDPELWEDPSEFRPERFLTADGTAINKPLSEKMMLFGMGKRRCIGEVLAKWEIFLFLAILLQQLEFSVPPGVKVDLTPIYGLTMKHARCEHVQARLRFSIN
Procedure: as §1, §2, §3

CYP2C9 = CYP2C9 (Homo sapiens, UniProt P11712); assay: as above; format: in vitro ADME; conditions: % inhibition at 10 μM; substrate MFC; cDNA expressed protein
Procedure: as §1, §2, §3

CYP2D6 = CYP2D6 (Homo sapiens, UniProt P10635); assay: as above; format: in vitro ADME; conditions: % inhibition at 10 μM; substrate AMMC; cDNA expressed protein
Procedure: as §1, §2, §3

[1] = test system: Sporothrix schenkii B62482; assay: Antifungal activity in vitro (resazurin susceptibility screen), Inf. A; format: cell-based; conditions: Sporothrix, B62482, Sporothrix schenkii B62482; 27 °C, 4 days, resa time 24 hours; highest in-test concentration 64 μM; read-out: Inf. A pIC50 (converted)
Procedure: (§4) The standard susceptibility screen was performed in 96-well plates (U-bottom, Greiner Bio-One). […] These serial dilutions (10 n1) were then spotted onto test-plates that could be stored in the dark at 4° C. for a maximum period of 2 weeks. […] The different fungal species/isolates (Table 3a) were cryopreserved and 1/1000 diluted in medium just prior to use. A standard inoculum of 200 μl containing 10^3 colony-forming unit (cfu) was then added to each well. A positive control (100% growth=fungal culture without antifungal) and a negative control (0% growth ═RPMI-MOPS medium) were included on each plate. […] [table]

Microsporum canis B68128 = assay: Antifungal activity in vitro (resazurin susceptibility screen), Inf. B; format: cell-based; conditions: 27 °C, 9 days, resa time 24 hours; for IC50: Microsporum canis, B68128, Microsporum canis B68128, read-out: Inf. B pIC50 (converted)
Procedure: (§5) The standard susceptibility screen was performed in 96-well plates (U-bottom, Greiner Bio-One). […] These serial dilutions (10 n1) were then spotted onto test-plates that could be stored in the dark at 4° C. for a maximum period of 2 weeks. […] A standard inoculum of 200 μl containing 10^3 colony-forming unit (cfu) was then added to each well. A positive control (100% growth=fungal culture without antifungal) and a negative control (0% growth ═RPMI-MOPS medium) were included on each plate.

[2] = test system: Trichophyton rubrum B68183; assay: Antifungal activity in vitro (resazurin susceptibility screen), Inf. C; format: cell-based; conditions: Trichophyton rubrum B68183; 27 °C, 7 days, resa time 24 hours; read-out: Inf. C pIC50 (converted)
Procedure: as §4

[3] = test system: Candida parapsilosis B66126; assay: Antifungal activity in vitro (resazurin susceptibility screen), Inf. D; format: cell-based; conditions: Lodderomyces parapsilosis; Candida parapsilosis B66126; 37 °C, 24 hours, resa time 4 hours; read-out: Inf. D pIC50 (converted)
Procedure: as §5

[4] = test system: Aspergillus fumigatus B42928; assay: Antifungal activity in vitro (resazurin susceptibility screen), Inf. E; format: cell-based; conditions: Aspergillus fumigatus B42928; 27 °C, 48 hours, resa time 17 hours; read-out: Inf. E pIC50 (converted)
Procedure: as §4

[5] = test system: Cryptococcus neoformans B66663; assay: Antifungal activity in vitro (resazurin susceptibility screen), Inf. F; format: cell-based; conditions: 37 °C, 24 hours, resa time 4 hours; for IC50: Cryptococcus neoformans, B66663, Cryptococcus neoformans B66663, read-out: Inf. F pIC50 (converted)
Procedure: as §4

[6] = test system: Trichophyton mentagrophytes B70554; assay: Antifungal activity in vitro (resazurin susceptibility screen), Inf. G; format: cell-based; conditions: Trichophyton mentagrophytes, B70554, Trichophyton mentagrophytes B70554; 27 °C, 7 days, resa time 24 hours; read-out: Inf. G pIC50 (converted)
Procedure: as §5

Sequence of CYP2D6 (P10635 whole entry): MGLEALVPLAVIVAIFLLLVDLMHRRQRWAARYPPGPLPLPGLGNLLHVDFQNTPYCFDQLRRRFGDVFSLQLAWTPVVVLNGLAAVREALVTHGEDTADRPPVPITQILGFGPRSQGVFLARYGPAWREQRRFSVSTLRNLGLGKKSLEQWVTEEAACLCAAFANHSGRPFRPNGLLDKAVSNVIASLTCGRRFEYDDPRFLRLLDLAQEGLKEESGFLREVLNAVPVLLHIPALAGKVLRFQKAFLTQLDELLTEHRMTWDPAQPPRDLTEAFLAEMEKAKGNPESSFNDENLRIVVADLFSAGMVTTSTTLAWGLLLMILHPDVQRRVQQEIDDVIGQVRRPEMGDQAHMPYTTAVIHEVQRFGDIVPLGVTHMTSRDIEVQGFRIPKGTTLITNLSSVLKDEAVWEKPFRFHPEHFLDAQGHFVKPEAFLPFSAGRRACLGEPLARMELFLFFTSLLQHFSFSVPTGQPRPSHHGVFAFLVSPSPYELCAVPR
Sequence of CYP3A4 (P08684 whole entry): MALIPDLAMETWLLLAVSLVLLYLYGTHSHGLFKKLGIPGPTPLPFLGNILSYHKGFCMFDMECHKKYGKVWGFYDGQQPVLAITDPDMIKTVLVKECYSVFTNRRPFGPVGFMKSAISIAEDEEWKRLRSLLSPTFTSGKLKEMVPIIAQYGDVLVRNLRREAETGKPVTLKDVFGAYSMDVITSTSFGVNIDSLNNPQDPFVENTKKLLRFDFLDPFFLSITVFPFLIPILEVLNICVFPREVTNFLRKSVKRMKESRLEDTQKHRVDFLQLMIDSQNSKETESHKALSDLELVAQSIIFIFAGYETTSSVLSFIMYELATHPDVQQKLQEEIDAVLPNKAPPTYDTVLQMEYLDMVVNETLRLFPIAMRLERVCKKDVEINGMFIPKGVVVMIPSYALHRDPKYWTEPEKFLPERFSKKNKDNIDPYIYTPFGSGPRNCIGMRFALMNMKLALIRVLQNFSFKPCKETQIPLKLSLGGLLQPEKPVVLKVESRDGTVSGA
Sequence of CYP2C9 (P11712 whole entry): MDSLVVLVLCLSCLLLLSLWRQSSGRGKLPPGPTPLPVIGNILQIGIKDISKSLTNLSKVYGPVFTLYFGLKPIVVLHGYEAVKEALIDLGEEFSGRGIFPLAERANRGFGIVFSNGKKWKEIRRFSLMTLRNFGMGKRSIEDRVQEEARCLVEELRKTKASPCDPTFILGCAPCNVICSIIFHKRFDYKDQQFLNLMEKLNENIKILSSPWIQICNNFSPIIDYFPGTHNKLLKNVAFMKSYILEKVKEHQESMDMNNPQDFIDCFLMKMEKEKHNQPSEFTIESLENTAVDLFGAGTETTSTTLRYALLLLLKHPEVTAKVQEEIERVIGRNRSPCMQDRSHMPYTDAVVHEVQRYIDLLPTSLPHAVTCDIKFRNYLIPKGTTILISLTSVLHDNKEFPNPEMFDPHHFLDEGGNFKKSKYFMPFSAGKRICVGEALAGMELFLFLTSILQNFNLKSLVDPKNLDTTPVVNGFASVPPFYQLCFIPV

CC(=O)c1ccc(C2NCc3c(Cl)cccc3-n3cccc32)cc1.Cl (stereo not drawn)
hCYP3A4_BFC_Pct_Inh (CYP3A4): 57%
hCYP3A4_BQ_Pct_Inh (CYP3A4): 57%
hCYP3A4_DBF_Pct_Inh (CYP3A4): 70%
hCYP1A2_CEC_Pct_Inh (CYP1A2): 12%
hCYP2C9_MFC_Pct_Inh (CYP2C9): 54%
hCYP2D6_AMMC_Pct_Inh (CYP2D6): 53%

CCc1ccc(C2NCc3c(Cl)cccc3-n3cccc32)cc1.Cl (stereo not drawn)
hCYP3A4_BFC_Pct_Inh (CYP3A4): 64%
hCYP3A4_BQ_Pct_Inh (CYP3A4): 57%
hCYP3A4_DBF_Pct_Inh (CYP3A4): 69%
hCYP1A2_CEC_Pct_Inh (CYP1A2): 48%
hCYP2C9_MFC_Pct_Inh (CYP2C9): 68%
hCYP2D6_AMMC_Pct_Inh (CYP2D6): 96%

CCc1ccc(C2=NCc3ccc(Cl)cc3-n3cccc32)cc1
hCYP3A4_BFC_Pct_Inh (CYP3A4): 55%
hCYP3A4_BQ_Pct_Inh (CYP3A4): 66%
hCYP3A4_DBF_Pct_Inh (CYP3A4): 70%
hCYP1A2_CEC_Pct_Inh (CYP1A2): 40%
hCYP2C9_MFC_Pct_Inh (CYP2C9): 50%
hCYP2D6_AMMC_Pct_Inh (CYP2D6): 33%

CC(=O)c1ccc(C2NCc3ccc(Cl)cc3-n3cccc32)cc1 (stereo not drawn) [Compound 8, 1-[4-(9-chloro-5,6-dihydro-4H-pyrrolo[1,2-a][1,4]benzodiazepin-4-yl)phenyl]-ethanone]
IC50 [1]: 31.6 µM
IC50 (Microsporum canis B68128): > 63.1 µM
IC50 [2]: 2 µM
IC50 [3]: > 63.1 µM
IC50 [4]: 12.6 µM
IC50 [5]: 50.1 µM
IC50 [6]: 5.01 µM
melting point: 185.4 to 186.9 °C

CC(=O)c1ccc(C2NCc3c(Cl)cc(Cl)cc3-n3cccc32)cc1 (stereo not drawn) [Compound 11, 1-[4-(7,9-dichloro-5,6-dihydro-4H-pyrrolo[1,2-a][1,4]benzodiazepin-4-yl)phenyl]-ethanone]
IC50 [1]: 50.1 µM
Inf. B pIC50 (Microsporum canis B68128; Microsporum canis B68128): 6.0
IC50 [2]: 2 µM
IC50 [3]: > 63.1 µM
IC50 [4]: > 63.1 µM
Inf. F pIC50 ([5]; Cryptococcus neoformans B66663): 5.2
IC50 [6]: 5.01 µM
melting point: 204.8 to 206.6 °C

CC(=O)c1ccc(C2NCc3cc(Cl)cc(Cl)c3-n3cccc32)cc1.Cl (stereo not drawn) [Compound 14, 1-[4-(8,10-dichloro-5,6-dihydro-4H-pyrrolo[1,2-a][1,4]benzodiazepin-4-yl)phenyl]-ethanone .HCl]
IC50 [1]: 25.1 µM
IC50 (Microsporum canis B68128): 2.51 µM
IC50 [2]: 0.631 µM
IC50 [3]: > 63.1 µM
IC50 [4]: > 63.1 µM
IC50 [5]: 50.1 µM
IC50 [6]: 25.1 µM
melting point: 259.3 to 264.5 °C
